Data set [1] deals with Pseudomonas aeruginosa. The data set is described as follows: Antibacterial activity against Pseudomonas aeruginosa SR-24736 isolate by standard serial agar dilution method. It counts as functional.
Data set [2] has as its system Pseudomonas aeruginosa. The data set is described as follows: Antibacterial activity against Pseudomonas aeruginosa SR-24816 isolate by standard serial agar dilution method. It counts as functional.
The subject of a further data set is Staphylococcus aureus. The data set is described as follows: Antibacterial activity against Staphylococcus aureus Smith by standard serial agar dilution method. It counts as functional.
Data set [3] deals with Pseudomonas aeruginosa. Kind of data set: Antibacterial activity against Pseudomonas aeruginosa SR-24797 isolate by standard serial agar dilution method. The data set is classed as functional.
Data set [4] deals with Pseudomonas aeruginosa. Kind of data set: Antibacterial activity against Pseudomonas aeruginosa SR-24765 isolate by standard serial agar dilution method. It counts as functional.
Another data set relates to Moraxella catarrhalis. The data set is described as follows: Antibacterial activity against Moraxella catarrhalis ATCC 43617 by standard serial agar dilution method. It counts as functional.
Data set [5] deals with Enterobacter cloacae. Kind of data set: Antibacterial activity against Enterobacter cloacae ATCC 13047 by standard serial agar dilution method. The data set is classed as functional.
For data set [6], the system named is Haemophilus influenzae. The data set is described as follows: Antibacterial activity against beta-lactamase negative ampicillin-resistant Haemophilus influenzae SR-11435 by standard serial agar dilution method. It counts as functional.
The test system of data set [7] is Escherichia coli. Kind of data set: Antibacterial activity against Escherichia coli SR-21003 by standard serial agar dilution method. The data set is classed as functional.
The subject of data set [8] is Pseudomonas aeruginosa. The data set is described as follows: Antibacterial activity against Pseudomonas aeruginosa SR24 by standard serial agar dilution method. The data set is classed as functional.
The test system of data set [9] is Pseudomonas aeruginosa. The data set is described as follows: Antibacterial activity in CAZ-resistant Pseudomonas aeruginosa SR24-12 infected ICR mouse after 7 days. It counts as functional. Conditions: 168 h.
In data set [10] the test system is Escherichia coli. The data set is described as follows: Antibacterial activity against Toho 2 producing Escherichia coli by standard serial agar dilution method. The data set is classed as functional.
In data set [11] the test system is Enterobacter cloacae. Kind of data set: Antibacterial activity against AmpC producing Enterobacter cloacae SR-4321 by standard serial agar dilution method. The data set is classed as functional.
The test system of data set [12] is Haemophilus influenzae. Kind of data set: Antibacterial activity against Haemophilus influenzae ATCC 49766 by standard serial agar dilution method. It counts as functional.
The next data set relates to Streptococcus pneumoniae. The data set is described as follows: Antibacterial activity against penicillin-resistant Streptococcus pneumoniae SR-16675 by standard serial agar dilution method. The data set is classed as functional.
In data set [13] the test system is Pseudomonas aeruginosa. Kind of data set: Antibacterial activity against Pseudomonas aeruginosa SR-24770 isolate by standard serial agar dilution method. The data set is classed as functional.
The test system of data set [14] is Pseudomonas aeruginosa. Kind of data set: Antibacterial activity against Pseudomonas aeruginosa SR-5393 by standard serial agar dilution method. It counts as functional.
The test system of data set [15] is Pseudomonas aeruginosa. Kind of data set: Antibacterial activity against AmpC hyperproducing Pseudomonas aeruginosa SR24-12 by standard serial agar dilution method. It counts as functional.
Data set [16] can be described thus: Stability in presence of AmpC beta-lactamase. The data set is classed as ADME.
The test system of data set [17] is Pseudomonas aeruginosa. Kind of data set: Antibacterial activity against Pseudomonas aeruginosa SR-24722 isolate by standard serial agar dilution method. It counts as functional.
Data set [18] concerns Pseudomonas aeruginosa. The data set is described as follows: Antibacterial activity against imipenem-resistant Pseudomonas aeruginosa SR-6554 by standard serial agar dilution method. The data set is classed as functional.
The test system of data set [19] is Pseudomonas aeruginosa. The data set is described as follows: Antibacterial activity in CAZ-susceptible Pseudomonas aeruginosa SR24 infected ICR mouse after 7 days. It counts as functional. Conditions: 168 h.

Molecules are shown by their SMILES. ≈ marks a conversion by molar mass, not a printed value. A value given as a limit tells only on which side of the number the result lay.

Take `CC(C)(O/N=C(\C(=O)N[C@@H]1C(=O)N2C(C(=O)[O-])=C(C[n+]3ccccc3)CS[C@H]12)c1csc(N)n1)C(=O)O` [CEFTAZIDIME]: the MIC against Pseudomonas aeruginosa [1] turned out to be 128 µg/mL (≈ 234 µM); against Pseudomonas aeruginosa [2], 64 µg/mL (≈ 117 µM); in the data set with Staphylococcus aureus, 8 µg/mL (≈ 14.6 µM); against Pseudomonas aeruginosa [3] it was 64 µg/mL (≈ 117 µM); in the data set on Pseudomonas aeruginosa [4], 128 µg/mL (≈ 234 µM); in the data set with Moraxella catarrhalis it was 0.063 µg/mL (≈ 0.115 µM). The MIC amounted to 8 µg/mL (≈ 14.6 µM) against Enterobacter cloacae [5]; 0.125 µg/mL (≈ 0.229 µM) against Haemophilus influenzae [6]; 0.25 µg/mL (≈ 0.457 µM) in the data set on Escherichia coli [7]; 0.5 µg/mL (≈ 0.915 µM) against Pseudomonas aeruginosa [8]; 1 µg/mL (≈ 1.83 µM) in the data set on Escherichia coli [10]; 64 µg/mL (≈ 117 µM) in the data set with Enterobacter cloacae [11]. The MIC came to 0.063 µg/mL (≈ 0.115 µM) with Haemophilus influenzae [12]; 8 µg/mL (≈ 14.6 µM) against Streptococcus pneumoniae; 64 µg/mL (≈ 117 µM) in the data set with Pseudomonas aeruginosa [13]; 2 µg/mL (≈ 3.66 µM) in the data set on Pseudomonas aeruginosa [14]; 64 µg/mL (≈ 117 µM) in the data set on Pseudomonas aeruginosa [15]; 64 µg/mL (≈ 117 µM) against Pseudomonas aeruginosa [17]. The MIC in the data set with Pseudomonas aeruginosa [18] came to 32 µg/mL (≈ 58.5 µM). Moreover, the figures for the ED50 in the data set on Pseudomonas aeruginosa [9] and with Pseudomonas aeruginosa [19] were above 128 mg/kg and 2.83 mg/kg, respectively. In addition, in data set [16], the Stability is 18%.

With `CNCCCn1c(N)nc2c1ccc[n+]2CC1=C(C(=O)[O-])N2C(=O)[C@@H](NC(=O)/C(=N\O[C@@H](C)C(=O)O)c3nc(N)sc3Cl)[C@H]2SC1`, the MIC against Pseudomonas aeruginosa [1] was determined as 2 µg/mL (≈ 2.89 µM); against Pseudomonas aeruginosa [2], 2 µg/mL (≈ 2.89 µM); against Staphylococcus aureus, 2 µg/mL (≈ 2.89 µM); against Pseudomonas aeruginosa [3] it was 4 µg/mL (≈ 5.77 µM); with Pseudomonas aeruginosa [4] it was 4 µg/mL (≈ 5.77 µM); with Moraxella catarrhalis, 0.016 µg/mL (≈ 0.0231 µM). The MIC turned out to be 0.5 µg/mL (≈ 0.721 µM) in the data set with Enterobacter cloacae [5]; 0.063 µg/mL (≈ 0.0909 µM) against Haemophilus influenzae [6]; 0.25 µg/mL (≈ 0.361 µM) with Escherichia coli [7]; 0.5 µg/mL (≈ 0.721 µM) in the data set with Pseudomonas aeruginosa [8]; 2 µg/mL (≈ 2.89 µM) against Escherichia coli [10]; 2 µg/mL (≈ 2.89 µM) against Enterobacter cloacae [11]. The MIC against Haemophilus influenzae [12] came to 0.032 µg/mL (≈ 0.0462 µM); against Streptococcus pneumoniae, 2 µg/mL (≈ 2.89 µM); against Pseudomonas aeruginosa [13] it was 4 µg/mL (≈ 5.77 µM); in the data set on Pseudomonas aeruginosa [14], 2 µg/mL (≈ 2.89 µM); with Pseudomonas aeruginosa [15], 4 µg/mL (≈ 5.77 µM); against Pseudomonas aeruginosa [17], 4 µg/mL (≈ 5.77 µM). This compound also had an MIC against Pseudomonas aeruginosa [18] of 8 µg/mL (≈ 11.5 µM). Further, the median effective dose (ED50) with Pseudomonas aeruginosa [9] was found to be 4.69 mg/kg; with Pseudomonas aeruginosa [19], 1.33 mg/kg. In data set [16], the Stability was determined as 90.2%.

For the compound `CNCCCn1ccc2c1ccc[n+]2CC1=C(C(=O)[O-])N2C(=O)[C@@H](NC(=O)/C(=N\O[C@@H](C)C(=O)O)c3nc(N)sc3Cl)[C@H]2SC1`, the MIC was 8 µg/mL (≈ 11.8 µM) in the data set on Pseudomonas aeruginosa [1]; 4 µg/mL (≈ 5.91 µM) against Pseudomonas aeruginosa [2]; 2 µg/mL (≈ 2.95 µM) against Staphylococcus aureus; 8 µg/mL (≈ 11.8 µM) in the data set on Pseudomonas aeruginosa [3]; 8 µg/mL (≈ 11.8 µM) with Pseudomonas aeruginosa [4]; 0.016 µg/mL (≈ 0.0236 µM) in the data set on Moraxella catarrhalis. Besides, the MIC against Enterobacter cloacae [5] came out at 0.5 µg/mL (≈ 0.738 µM); in the data set on Haemophilus influenzae [6], 0.063 µg/mL (≈ 0.093 µM); with Escherichia coli [7], 0.5 µg/mL (≈ 0.738 µM); against Pseudomonas aeruginosa [8], 1 µg/mL (≈ 1.48 µM); in the data set on Escherichia coli [10], 2 µg/mL (≈ 2.95 µM); with Enterobacter cloacae [11] it was 2 µg/mL (≈ 2.95 µM). In addition, the MIC was 0.032 µg/mL (≈ 0.0473 µM) against Haemophilus influenzae [12]; 4 µg/mL (≈ 5.91 µM) against Streptococcus pneumoniae; 8 µg/mL (≈ 11.8 µM) with Pseudomonas aeruginosa [13]; 2 µg/mL (≈ 2.95 µM) against Pseudomonas aeruginosa [14]; 4 µg/mL (≈ 5.91 µM) against Pseudomonas aeruginosa [15]; 8 µg/mL (≈ 11.8 µM) against Pseudomonas aeruginosa [17]. The compound further came in with an MIC against Pseudomonas aeruginosa [18] of 8 µg/mL (≈ 11.8 µM). In addition, in data set [16], the Stability is 78.4%.

These data come from ChEMBL document CHEMBL1144019 (Bioorg Med Chem, 2008).
